Measured values: PMC5773580, “A synthetic combinatorial approach to disabling deviant Hedgehog signaling” (Scientific Reports, 2018)
Values belong to the molecule of their own block, whether it stands above or below them.

Key:
[1] = tested on: SHH-induced GLI activity (GLI-BS reporter) in NIH3T3; test: HH pathway reporter (GLI-BS reporter) assay, +Shh in NIH3T3; format: cell-based; details: Mus musculus; +Shh in NIH3T3, 48 hrs with compound
Procedure: (§1) The HH-responsive firefly luciferase reporter (GLI-BS) and a control Renilla luciferase reporter (SV40-RL) were transfected into indicated cell lines using Effectene (Qiagen) either alone or with indicated DNAs. 24 hrs after transfection, cells were switched to low serum media (3% calf serum), and grown for another 48 hrs. in 5% CO2 in the presence/absence of compounds. 3T3-ShhFL cell line that stably expressing SHH and the two reporters were cultured in a similar fashion. FL and RL activities in lysate generated using Passive Lysis Buffer (Promega) were then assessed using the Dual-Luciferase kit (Promega) and a 96-well plate reading luminometer (BMG). The ratio of FL/RL was calculated and the averaged ratios from three replicates were reported.

[2] = tested on: GLI-BS reporter in Ptch1-/- MEFs; test: GLI-BS reporter assay in Ptch1-/- MEFs; format: cell-based
Procedure: as §1

[3] = tested on: SMO-M2 in NIH3T3 (GLI-BS reporter); test: GLI-BS reporter assay, NIH3T3 cells with SMO-M2 DNA; format: cell-based; details: Mus musculus
Procedure: as §1

[4] = tested on: SMO-L412F in NIH3T3 (GLI-BS reporter); test: GLI-BS reporter assay, NIH3T3 cells with SMO-L412F DNA; format: cell-based; details: Mus musculus
Procedure: as §1

[5] = tested on: RMS13 cells (GLI1 amp), GLI-BS reporter; test: GLI-BS reporter assay in RMS13 cells (GLI1 amplification); format: cell-based
Procedure: as §1

[6] = tested on: nuclear HDAC activity (Ac-H3) in NIH-3T3 cells; test: Acetylation assay, Western blotting for acetylated histone 3 (Ac-H3); format: cell-based; details: 48hrs, Western blot
Procedure: (§2) For analyzing acetylation status of histone 3 and tubulin, NIH3T3 cells were grown to confluence in 6-well plates. After 48hrs of treatment with indicated chemicals, cells were lysed in RIPA buffer or 1% NP40/phosphate buffered saline/protease inhibitors (SIGMA, #S8820), the lysate cleared using a microcentrifuge, then 6 × sample loading buffer (Bioland Scientific) added to the supernatant. Proteins were separated on SDS-PAGE (BioRad Criterion TGX Precast Gels). Antibodies used for analyzing the blots were: acetylated tubulin (SIGMA, #T6793), tubulin, acetyl-histone H3 (Lys23), and histone H3 (Cell Signaling Technology, #2125 S, #8848 and #9717, respectively). Chemiluminescence was detected using a Li-COR Odyssey Imaging System.

[7] = tested on: HDAC activity (acetylated tubulin) in NIH-3T3 cells; test: Acetylation assay, Western blot of acetylated tubulin; format: cell-based; details: 48hrs
Procedure: as §2

Caco-2 cells = test: Caco-2 transwell cell permeability assay read out with 3T3-ShhFL reporter cells; format: in vitro ADME; details: 10μM, 6hrs, "B" CM tested on 3T3-ShhFL cells
Procedure: Caco-2 cell permeability assay was previously described. Briefly, Caco-2 cells were grown to confluence in 12-well transwell plates. Culture medium was replaced with 10μM of compounds in DMEM/ 3% calf serum and incubated for 6hrs. Diluted media were added to confluent 3T3-ShhFL cells for 48hrs and measure the Hh pathway activity by reporter assay.

[8] = tested on: GLI1 binding to DNA in RMS13 cells; test: GLI DNA binding assay (biotinylated oligo pulldown); format: cell-based; details: lysate of RMS13 cells treated 48 hrs
Procedure: A detailed protocol for DNA binding assay was previously described. Briefly, cells treated for 48 hrs with compounds were lysed in 1% NP40/phosphate buffered saline/protease inhibitors and cleared using a microcentrifuge. The lysate was then incubated with 0.5 µM of double-strand biotinylated oligonucleotides and 40 µl streptavidin-agarose bead suspension (Thermo Scientific, 20349) for 2 hrs. The streptavidin agarose beads are washed (3X) with 1% NP40/phosphate buffered saline/protease inhibitors and eluted with 2X Laemmli sample buffer. The supernatants are separated on SDS-PAGE and analyzed using western blotting. Antibodies were purchased from the following vendors: GLI1 (Cell Signaling Technology, #2534) and actin (SIGMA, #A5441).

Compound: O=C(Nc1ccc(NC(=O)c2cc(Cl)ccc2Cl)cc1)c1cc(Cl)ccc1Cl [IHR-1, reference compound]
IC50 [1]: 7 nM
IC50 [2]: 25 nM

Compound: CC(C)(C)OC(=O)Nc1ccc(Cl)c(C(=O)Nc2ccc(NC(=O)c3cc(Cl)ccc3Cl)cc2)c1 [IHR-NBoc, tert-butyl (4-chloro-3-((4-(2,5-dichlorobenzamido)phenyl)carbamoyl)phenyl)carbamate]
IC50 [1]: 1.9 nM

Compound: O=C(CCCCCCC(=O)Nc1ccccc1)NO [SAHA, suberanilohydroxamic acid]
GLI1 binding to immobilized oligos with consensus GLI binding sequence [8]: loss of GLI1 binding

Second part, led by results:

IC50 [2]: 2500 nM
IC50 [5]: 1200 nM
Compound: O=C(CCCCCCC(=O)Nc1ccc(Cl)c(C(=O)Nc2cccc(NC(=O)c3cc(Cl)ccc3Cl)c2)c1)NO [IHR (meta)-SAHA]
IC50 [1]: 2300 nM
IC50 [3]: 850 nM
IC50 [4]: 920 nM
HDAC inhibitory activity, accumulation of acetylated histone 3 (ratio Ac-H3 to total H3) [6]: retain HDAC inhibitory activity
HDAC inhibitory activity, acetylated tubulin accumulation (ratio to total tubulin), compared with SAHA [7]: increase in anti-HDAC activity

ability to transverse a cell monolayer (cell permeability) (Caco-2 cells): improved
Compound: CC(C)(C)OC(=O)NCCCCCCC(=O)Nc1ccc(Cl)c(C(=O)Nc2ccc(NC(=O)c3cc(Cl)ccc3Cl)cc2)c1 [IHR-C7]
IC50 [1]: 4 nM
